# From the supplement of paper PMC11451515
# Tested on: NOMO1
# Assay: cell viability relative to DMSO control; higher = less cytotoxic
# Settings: 48 h
# Procedure, shortened: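 Three leukemia lines were tested: NOMO1 and SEM at 500 cells/well and P12-Ichikawa at 1000 cells/well. Each was adapted for at least four passages in each medium and seeded in 5 μl in 1536-well plates, and library compounds in DMSO were pin-dosed from 47 μM to 0.79 nM in 11 threefold steps. After 48 h at 37°C, CellTiter-Glo One luminescence was read. Viability is a percentage relative to DMSO wells on each plate, with cell-free wells as background.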
# [1] = HPLM + 10% dialyzed FBS, 0.000781 µM
# [2] = HPLM + 10% dialyzed FBS, 0.00234 µM
# [3] = HPLM + 10% dialyzed FBS, 0.00702 µM
# [4] = HPLM + 10% dialyzed FBS, 0.0211 µM
# [5] = HPLM + 10% dialyzed FBS, 0.0632 µM
# [6] = HPLM + 10% dialyzed FBS, 0.19 µM
# [7] = HPLM + 10% dialyzed FBS, 0.569 µM
# [8] = HPLM + 10% dialyzed FBS, 1.71 µM
# [9] = HPLM + 10% dialyzed FBS, 5.12 µM
# [10] = HPLM + 10% dialyzed FBS, 15.4 µM
# [11] = HPLM + 10% dialyzed FBS, 46.1 µM
# [12] = RPMI 5 mM glucose + 10% FBS, 0.000781 µM
# [13] = RPMI 5 mM glucose + 10% FBS, 0.00234 µM
# [14] = RPMI 5 mM glucose + 10% FBS, 0.00702 µM
# [15] = RPMI 5 mM glucose + 10% FBS, 0.0211 µM
# [16] = RPMI 5 mM glucose + 10% FBS, 0.0632 µM
# [17] = RPMI 5 mM glucose + 10% FBS, 0.19 µM
# [18] = RPMI 5 mM glucose + 10% FBS, 0.569 µM
# [19] = RPMI 5 mM glucose + 10% FBS, 1.71 µM
# [20] = RPMI 5 mM glucose + 10% FBS, 5.12 µM
# [21] = RPMI 5 mM glucose + 10% FBS, 15.4 µM
# [22] = RPMI 5 mM glucose + 10% FBS, 46.1 µM
# [23] = RPMI 5 mM glucose + 10% dialyzed FBS, 0.000781 µM
# [24] = RPMI 5 mM glucose + 10% dialyzed FBS, 0.00234 µM
# [25] = RPMI 5 mM glucose + 10% dialyzed FBS, 0.00702 µM
# [26] = RPMI 5 mM glucose + 10% dialyzed FBS, 0.0211 µM
# [27] = RPMI 5 mM glucose + 10% dialyzed FBS, 0.0632 µM
# [28] = RPMI 5 mM glucose + 10% dialyzed FBS, 0.19 µM
# [29] = RPMI 5 mM glucose + 10% dialyzed FBS, 0.569 µM
# [30] = RPMI 5 mM glucose + 10% dialyzed FBS, 1.71 µM
# [31] = RPMI 5 mM glucose + 10% dialyzed FBS, 5.12 µM
# [32] = RPMI 5 mM glucose + 10% dialyzed FBS, 15.4 µM
# [33] = RPMI 5 mM glucose + 10% dialyzed FBS, 46.1 µM
SMILES,cell viability [1],cell viability [2],cell viability [3],cell viability [4],cell viability [5],cell viability [6],cell viability [7],cell viability [8],cell viability [9],cell viability [10],cell viability [11],cell viability [12],cell viability [13],cell viability [14],cell viability [15],cell viability [16],cell viability [17],cell viability [18],cell viability [19],cell viability [20],cell viability [21],cell viability [22],cell viability [23],cell viability [24],cell viability [25],cell viability [26],cell viability [27],cell viability [28],cell viability [29],cell viability [30],cell viability [31],cell viability [32],cell viability [33]
COC(=O)C\1=C(C)\N\C(=C(/C1C2=CC=CC3=NON=C23)C(=O)OC(C)C)C (stereo unspecified),115%,116%,104%,111%,111%,108%,96.3%,89.8%,88.8%,96.3%,85.1%,95.4%,94.6%,91.3%,99.3%,103%,89.4%,94.5%,85.2%,81.4%,86.6%,94.7%,105%,101%,100%,108%,88.7%,92.3%,87.8%,102%,92.8%,93.4%,106%
CC#CCn1c(N2CCC[C@@H](N)C2)nc2c1c(=O)n(Cc1nc(C)c3ccccc3n1)c(=O)n2C,97.8%,97.2%,100%,88.2%,108%,110%,104%,87.8%,98.3%,114%,75.1%,97.6%,93.7%,101%,90.3%,89%,96.3%,102%,89%,88.1%,91.1%,82%,104%,96.6%,112%,87.7%,101%,105%,100%,96.3%,93.8%,97.7%,91.7%
CNc1nc(Nc2cnn([C@H]3CCN(C4COC4)C[C@@H]3F)c2Cl)ncc1C(F)(F)F,105%,105%,115%,116%,120%,36.8%,82.4%,35.6%,39.6%,36.5%,29.5%,97.2%,109%,110%,118%,105%,107%,115%,65.4%,19.3%,19.6%,18%,98.8%,110%,108%,107%,118%,127%,103%,126%,39.6%,23.6%,26.5%
CN1CCCN(CC1)C2=CC=C3C(=O)\C(=C/4SC5=C(C=CC=C5)N4C3=N2)C(=O)NCC6=CN=C(C)C=N6,127%,122%,108%,130%,110%,96.6%,125%,105%,116%,115%,94.2%,106%,103%,99.8%,94.1%,94.4%,107%,101%,105%,97.3%,92.4%,86.7%,103%,105%,111%,91.2%,119%,115%,102%,98.7%,82.9%,89%,84.8%
CC1=CC(=CC(=C1C\C2=N\CCN2)C)C(C)(C)C,91.4%,115%,107%,129%,104%,109%,108%,87.7%,57.4%,34.2%,35.9%,99.3%,98.7%,92.9%,100%,114%,96.3%,98.4%,91.1%,69.5%,51.5%,43.9%,86.8%,106%,101%,100%,109%,99.8%,116%,78.9%,49.1%,56.8%,50.7%
O=C(CCCN1CCN(c2ccc(F)cc2)CC1)NC1c2ccccc2CSc2ccccc21 (stereo unspecified),,,,,,,,,,,,135%,109%,108%,125%,126%,117%,112%,117%,74%,103%,71.1%,121%,120%,125%,114%,118%,112%,113%,106%,99.9%,90.8%,58%
Cc1ccnc2c1NC(=O)c1cccnc1N2C1CC1,102%,104%,98.7%,121%,112%,112%,113%,89.7%,55.3%,61.4%,35.8%,85.2%,107%,93.1%,100%,103%,118%,93.3%,84.1%,59.3%,68.1%,59.1%,94.8%,102%,110%,98.6%,113%,97.1%,110%,97.4%,52.7%,79.4%,79.4%
Nc1c2c(nc3ccccc13)CCCC2,129%,105%,122%,125%,118%,100%,117%,31.8%,83.6%,35.5%,10.3%,113%,123%,115%,117%,108%,117%,115%,41.6%,98.3%,40.2%,8.53%,118%,105%,112%,119%,128%,111%,111%,67.9%,80.1%,51%,19.2%
Cc1cccc(Nc2ccncc2[S+](=O)([O-])NC(=O)NC(C)C)c1,105%,103%,100%,85.6%,112%,105%,103%,87.3%,80.9%,89.3%,56%,95.6%,89.6%,96.4%,88.9%,83%,84.8%,89.4%,89.1%,79.2%,82.3%,72.4%,89.1%,91.4%,81.1%,94.1%,93.6%,92.6%,85.5%,89.3%,83.5%,81%,65.8%
CCOC(=O)C(C)OC1=CC=CC2=C1\C=C/N(CC(=O)NC3=CC=C4OCCOC4=C3)C2=O (stereo unspecified),82.7%,96.6%,94.4%,97.2%,90.8%,98.5%,99.8%,94.7%,80.5%,81.8%,97.2%,81.7%,89.4%,101%,96.8%,91%,88.8%,96.7%,87.8%,89.4%,89.5%,87.5%,92.3%,89.8%,98.2%,92.2%,94.6%,92.3%,94.9%,88.8%,74.6%,91.9%,109%
Nc1ccc([S+](=O)([O-])Nc2ccnn2-c2ccccc2)cc1,85.1%,97.6%,104%,101%,108%,98.6%,100%,98.3%,107%,102%,113%,84.7%,98.5%,97.8%,105%,98.9%,97%,99.4%,95.6%,102%,94.1%,96.8%,81.4%,90.1%,91.8%,95.1%,100%,104%,94.7%,93.8%,90.1%,92.6%,101%
Nc1ncnc2c1ncn2[C@@H]1O[C@H](CO)C[C@H]1O,105%,97.1%,97.1%,102%,94.3%,101%,73%,87.4%,95.2%,81.7%,79.8%,85.7%,87%,94.7%,87.9%,93%,84.4%,88%,80.7%,91.1%,82.5%,92.4%,103%,109%,94.9%,103%,103%,90.2%,87.8%,92.2%,85.6%,91.2%,92.1%
C[C@]12CC[C@H]3[C@@H](CCC4=CC(=O)CC[C@@H]43)[C@@H]1CC[C@@H]2OC(=O)CCc1ccccc1,,,,,,,,,,,,126%,115%,119%,130%,114%,113%,112%,133%,115%,128%,78%,120%,127%,115%,124%,141%,135%,144%,133%,128%,137%,68.7%
CNC(=O)c1ccc(Nc2cc(Nc3ccccc3[S+](=O)([O-])C(C)C)c3cc[nH]c3n2)nc1,98.4%,105%,111%,105%,116%,102%,108%,91.7%,77.6%,70.6%,31.7%,98%,100%,101%,103%,102%,106%,108%,102%,49.2%,51.9%,25.1%,89.1%,99.1%,101%,106%,102%,102%,109%,95.7%,57.2%,56.7%,34%
O=C(O)c1cc(/N=N/c2ccc([S+](=O)([O-])Nc3ccccn3)cc2)ccc1O,102%,113%,108%,104%,121%,109%,104%,115%,111%,105%,91%,101%,107%,115%,96.8%,99.2%,102%,102%,98.2%,114%,98.7%,97.6%,95.1%,96.9%,109%,94.3%,106%,97%,115%,111%,91.2%,98.9%,102%
CC(C(=O)O)c1ccc2c(c1)CC(=O)c1ccccc1S2 (stereo unspecified),114%,106%,113%,120%,121%,128%,109%,87.2%,68.2%,25.7%,30.6%,104%,115%,116%,112%,107%,106%,103%,103%,103%,22.3%,21.2%,99.6%,116%,94.2%,105%,113%,105%,103%,85.3%,87.7%,23%,24%
